Data as given in the NIST ThermoML archive (doi:10.1016/j.jct.2016.12.015).
Numbers after ± are expanded uncertainties.

Assay: molar heat capacity at constant pressure
Details: 101.33 kPa, Crystal, Small (less than 1 g) adiabatic calorimetry

Structure (SMILES): C[C@H]1C[C@@H]2[C@H]([C@@H](O)C[C@@]3(C)[C@H]2CC[C@]3(O)C(=O)CO)[C@@]2(C)C=CC(=O)C=C12 [Methylprednisolone]
- molar heat capacity at constant pressure (5 K): 0.981 ± 0.052 J/K/mol
- molar heat capacity at constant pressure (6.33 K): 2.001 ± 0.091 J/K/mol
- molar heat capacity at constant pressure (6.49 K): 2.141 ± 0.096 J/K/mol
- molar heat capacity at constant pressure (6.65 K): 2.26 ± 0.1 J/K/mol
- molar heat capacity at constant pressure (6.78 K): 2.357 ± 0.1 J/K/mol
- molar heat capacity at constant pressure (6.95 K): 2.495 ± 0.11 J/K/mol
- molar heat capacity at constant pressure (7.1 K): 2.55 ± 0.11 J/K/mol
- molar heat capacity at constant pressure (7.24 K): 2.74 ± 0.12 J/K/mol
- molar heat capacity at constant pressure (7.49 K): 3.021 ± 0.13 J/K/mol
- molar heat capacity at constant pressure (7.82 K): 3.43 ± 0.15 J/K/mol
- molar heat capacity at constant pressure (8.13 K): 3.81 ± 0.17 J/K/mol
- molar heat capacity at constant pressure (8.44 K): 4.275 ± 0.18 J/K/mol
- molar heat capacity at constant pressure (8.75 K): 4.579 ± 0.2 J/K/mol
- molar heat capacity at constant pressure (9.05 K): 4.913 ± 0.21 J/K/mol
- molar heat capacity at constant pressure (9.36 K): 5.269 ± 0.23 J/K/mol
- molar heat capacity at constant pressure (9.69 K): 5.653 ± 0.24 J/K/mol
- molar heat capacity at constant pressure (10 K): 6.06 ± 0.26 J/K/mol
- molar heat capacity at constant pressure (10.01 K): 6.058 ± 0.26 J/K/mol
- molar heat capacity at constant pressure (10.33 K): 6.528 ± 0.28 J/K/mol
- molar heat capacity at constant pressure (10.66 K): 6.921 ± 0.29 J/K/mol
- molar heat capacity at constant pressure (11 K): 7.373 ± 0.31 J/K/mol
- molar heat capacity at constant pressure (11.38 K): 7.86 ± 0.33 J/K/mol
- molar heat capacity at constant pressure (11.77 K): 8.373 ± 0.35 J/K/mol
- molar heat capacity at constant pressure (12.06 K): 8.762 ± 0.37 J/K/mol
- molar heat capacity at constant pressure (12.88 K): 9.96 ± 0.42 J/K/mol
- molar heat capacity at constant pressure (14.16 K): 11.96 ± 0.5 J/K/mol
- molar heat capacity at constant pressure (15 K): 13.31 ± 0.55 J/K/mol
- molar heat capacity at constant pressure (15.44 K): 14.15 ± 0.59 J/K/mol
- molar heat capacity at constant pressure (16.74 K): 16.54 ± 0.68 J/K/mol
- molar heat capacity at constant pressure (18.07 K): 19.18 ± 0.79 J/K/mol
- molar heat capacity at constant pressure (19.43 K): 21.92 ± 0.9 J/K/mol
- molar heat capacity at constant pressure (20 K): 22.8 ± 0.94 J/K/mol
- molar heat capacity at constant pressure (22.43 K): 28.16 ± 0.37 J/K/mol
- molar heat capacity at constant pressure (25 K): 33.3 ± 0.42 J/K/mol
- molar heat capacity at constant pressure (25.22 K): 33.67 ± 0.42 J/K/mol
- molar heat capacity at constant pressure (28.44 K): 39.96 ± 0.48 J/K/mol
- molar heat capacity at constant pressure (30 K): 42.63 ± 0.48 J/K/mol
- molar heat capacity at constant pressure (31.97 K): 46.03 ± 0.52 J/K/mol
- molar heat capacity at constant pressure (35 K): 51.54 ± 0.58 J/K/mol
- molar heat capacity at constant pressure (35.53 K): 52.34 ± 0.58 J/K/mol
- molar heat capacity at constant pressure (39.09 K): 58.93 ± 0.65 J/K/mol
- molar heat capacity at constant pressure (40 K): 60.39 ± 0.67 J/K/mol
- molar heat capacity at constant pressure (42.67 K): 65.35 ± 0.4 J/K/mol
- molar heat capacity at constant pressure (45 K): 69.3 ± 0.42 J/K/mol
- molar heat capacity at constant pressure (46.26 K): 71.33 ± 0.43 J/K/mol
- molar heat capacity at constant pressure (49.86 K): 77.8 ± 0.47 J/K/mol
- molar heat capacity at constant pressure (50 K): 78.27 ± 0.47 J/K/mol
- molar heat capacity at constant pressure (53.45 K): 84.8 ± 0.5 J/K/mol
- molar heat capacity at constant pressure (57.05 K): 91.01 ± 0.54 J/K/mol
- molar heat capacity at constant pressure (60 K): 96.39 ± 0.57 J/K/mol
- molar heat capacity at constant pressure (60.67 K): 97.6 ± 0.57 J/K/mol
- molar heat capacity at constant pressure (64.3 K): 104 ± 0.6 J/K/mol
- molar heat capacity at constant pressure (67.91 K): 110.8 ± 0.6 J/K/mol
- molar heat capacity at constant pressure (70 K): 114.2 ± 0.7 J/K/mol
- molar heat capacity at constant pressure (71.53 K): 116.8 ± 0.7 J/K/mol
- molar heat capacity at constant pressure (75.17 K): 122.4 ± 0.7 J/K/mol
- molar heat capacity at constant pressure (78.82 K): 129.7 ± 0.7 J/K/mol
- molar heat capacity at constant pressure (80 K): 131.5 ± 0.8 J/K/mol
- molar heat capacity at constant pressure (81.9 K): 134.6 ± 0.8 J/K/mol
- molar heat capacity at constant pressure (82.48 K): 136 ± 0.8 J/K/mol
- molar heat capacity at constant pressure (86.1 K): 142.8 ± 0.8 J/K/mol
- molar heat capacity at constant pressure (86.12 K): 142.4 ± 0.8 J/K/mol
- molar heat capacity at constant pressure (89.32 K): 147.8 ± 0.8 J/K/mol
- molar heat capacity at constant pressure (90 K): 149.3 ± 0.8 J/K/mol
- molar heat capacity at constant pressure (92.91 K): 154.1 ± 0.8 J/K/mol
- molar heat capacity at constant pressure (96.5 K): 159.9 ± 0.9 J/K/mol
- molar heat capacity at constant pressure (100 K): 165.9 ± 0.9 J/K/mol
- molar heat capacity at constant pressure (100.08 K): 165.8 ± 0.9 J/K/mol
- molar heat capacity at constant pressure (103.66 K): 171.9 ± 0.9 J/K/mol
- molar heat capacity at constant pressure (107.23 K): 178 ± 1 J/K/mol
- molar heat capacity at constant pressure (110 K): 182.1 ± 1 J/K/mol
- molar heat capacity at constant pressure (110.81 K): 183.4 ± 1 J/K/mol
- molar heat capacity at constant pressure (114.37 K): 188.6 ± 1 J/K/mol
- molar heat capacity at constant pressure (117.93 K): 195.4 ± 1 J/K/mol
- molar heat capacity at constant pressure (120 K): 198.1 ± 1.1 J/K/mol
- molar heat capacity at constant pressure (121.48 K): 200.9 ± 1.1 J/K/mol
- molar heat capacity at constant pressure (125.04 K): 206.7 ± 1.1 J/K/mol
- molar heat capacity at constant pressure (128.59 K): 212 ± 1.1 J/K/mol
- molar heat capacity at constant pressure (130 K): 213.9 ± 1.1 J/K/mol
- molar heat capacity at constant pressure (132.14 K): 217.1 ± 1.2 J/K/mol
- molar heat capacity at constant pressure (135.68 K): 222.2 ± 1.2 J/K/mol
- molar heat capacity at constant pressure (139.22 K): 228.2 ± 1.2 J/K/mol
- molar heat capacity at constant pressure (140 K): 229.6 ± 1.2 J/K/mol
- molar heat capacity at constant pressure (142.74 K): 233.6 ± 1.2 J/K/mol
- molar heat capacity at constant pressure (146.27 K): 238.8 ± 1.3 J/K/mol
- molar heat capacity at constant pressure (149.79 K): 244.2 ± 1.3 J/K/mol
- molar heat capacity at constant pressure (150 K): 245 ± 1.3 J/K/mol
- molar heat capacity at constant pressure (153.3 K): 250 ± 1.3 J/K/mol
- molar heat capacity at constant pressure (156.82 K): 254.9 ± 1.3 J/K/mol
- molar heat capacity at constant pressure (160 K): 260.2 ± 1.4 J/K/mol
- molar heat capacity at constant pressure (160.33 K): 260.9 ± 1.4 J/K/mol
- molar heat capacity at constant pressure (163.83 K): 266.4 ± 1.4 J/K/mol
- molar heat capacity at constant pressure (167.33 K): 271.7 ± 1.4 J/K/mol
- molar heat capacity at constant pressure (170 K): 275.3 ± 1.4 J/K/mol
- molar heat capacity at constant pressure (170.82 K): 276.8 ± 1.4 J/K/mol
- molar heat capacity at constant pressure (174.31 K): 282.2 ± 1.5 J/K/mol
- molar heat capacity at constant pressure (177.79 K): 287.2 ± 1.5 J/K/mol
- molar heat capacity at constant pressure (180 K): 290.3 ± 1.5 J/K/mol
- molar heat capacity at constant pressure (181.26 K): 292.5 ± 1.5 J/K/mol
- molar heat capacity at constant pressure (184.73 K): 297.4 ± 1.5 J/K/mol
- molar heat capacity at constant pressure (188.19 K): 302.5 ± 1.6 J/K/mol
- molar heat capacity at constant pressure (190 K): 305.3 ± 1.6 J/K/mol
- molar heat capacity at constant pressure (191.65 K): 307.8 ± 1.6 J/K/mol
- molar heat capacity at constant pressure (195.06 K): 312.7 ± 1.6 J/K/mol
- molar heat capacity at constant pressure (198.5 K): 318.2 ± 1.6 J/K/mol
- molar heat capacity at constant pressure (200 K): 320.4 ± 1.7 J/K/mol
- molar heat capacity at constant pressure (201.93 K): 323.6 ± 1.7 J/K/mol
- molar heat capacity at constant pressure (205.36 K): 328.5 ± 1.7 J/K/mol
- molar heat capacity at constant pressure (208.8 K): 333.1 ± 1.7 J/K/mol
- molar heat capacity at constant pressure (210 K): 335.6 ± 1.7 J/K/mol
- molar heat capacity at constant pressure (212.23 K): 338.2 ± 1.7 J/K/mol
- molar heat capacity at constant pressure (215.66 K): 343.7 ± 1.8 J/K/mol
- molar heat capacity at constant pressure (219.09 K): 349.3 ± 1.8 J/K/mol
- molar heat capacity at constant pressure (220 K): 350.7 ± 1.8 J/K/mol
- molar heat capacity at constant pressure (222.53 K): 355 ± 1.8 J/K/mol
- molar heat capacity at constant pressure (225.95 K): 361 ± 1.9 J/K/mol
- molar heat capacity at constant pressure (229.38 K): 364.2 ± 1.9 J/K/mol
- molar heat capacity at constant pressure (230 K): 365.9 ± 1.9 J/K/mol
- molar heat capacity at constant pressure (232.82 K): 370.1 ± 1.9 J/K/mol
- molar heat capacity at constant pressure (236.24 K): 375.2 ± 1.9 J/K/mol
- molar heat capacity at constant pressure (239.67 K): 380.7 ± 2 J/K/mol
- molar heat capacity at constant pressure (240 K): 381.1 ± 2 J/K/mol
- molar heat capacity at constant pressure (243.1 K): 385.9 ± 2 J/K/mol
- molar heat capacity at constant pressure (246.53 K): 391.1 ± 2 J/K/mol
- molar heat capacity at constant pressure (249.92 K): 396.2 ± 2 J/K/mol
- molar heat capacity at constant pressure (250 K): 396.3 ± 2 J/K/mol
- molar heat capacity at constant pressure (253.35 K): 401.5 ± 2.1 J/K/mol
- molar heat capacity at constant pressure (256.77 K): 406.9 ± 2.1 J/K/mol
- molar heat capacity at constant pressure (260 K): 411.6 ± 2.1 J/K/mol
- molar heat capacity at constant pressure (260.19 K): 412 ± 2.1 J/K/mol
- molar heat capacity at constant pressure (263.6 K): 417.5 ± 2.1 J/K/mol
- molar heat capacity at constant pressure (267.02 K): 422.9 ± 2.2 J/K/mol
- molar heat capacity at constant pressure (270 K): 427.1 ± 2.2 J/K/mol
- molar heat capacity at constant pressure (270.43 K): 428.4 ± 2.2 J/K/mol
- molar heat capacity at constant pressure (273.84 K): 432.9 ± 2.2 J/K/mol
- molar heat capacity at constant pressure (277.25 K): 438.4 ± 2.2 J/K/mol
- molar heat capacity at constant pressure (280 K): 442.9 ± 2.3 J/K/mol
- molar heat capacity at constant pressure (280.64 K): 443.7 ± 2.3 J/K/mol
- molar heat capacity at constant pressure (284.03 K): 449 ± 2.3 J/K/mol
- molar heat capacity at constant pressure (287.42 K): 454 ± 2.3 J/K/mol
- molar heat capacity at constant pressure (290 K): 458.9 ± 2.3 J/K/mol
- molar heat capacity at constant pressure (290.79 K): 460.1 ± 2.3 J/K/mol
- molar heat capacity at constant pressure (294.15 K): 465.4 ± 2.4 J/K/mol
- molar heat capacity at constant pressure (297.51 K): 471.2 ± 2.4 J/K/mol
- molar heat capacity at constant pressure (298.15 K): 472.1 ± 2.4 J/K/mol
- molar heat capacity at constant pressure (300 K): 475.1 ± 2.4 J/K/mol
- molar heat capacity at constant pressure (300.85 K): 475.9 ± 2.4 J/K/mol
- molar heat capacity at constant pressure (304.09 K): 481.9 ± 2.4 J/K/mol
- molar heat capacity at constant pressure (307.42 K): 487.8 ± 2.5 J/K/mol
- molar heat capacity at constant pressure (310 K): 491.2 ± 2.5 J/K/mol
- molar heat capacity at constant pressure (310.76 K): 492.9 ± 2.5 J/K/mol
- molar heat capacity at constant pressure (314.09 K): 498.1 ± 2.5 J/K/mol
- molar heat capacity at constant pressure (317.42 K): 503 ± 2.5 J/K/mol
- molar heat capacity at constant pressure (320 K): 507 ± 2.6 J/K/mol
- molar heat capacity at constant pressure (320.76 K): 508 ± 2.6 J/K/mol
- molar heat capacity at constant pressure (324.1 K): 513.3 ± 2.6 J/K/mol
- molar heat capacity at constant pressure (327.44 K): 518.2 ± 2.6 J/K/mol
- molar heat capacity at constant pressure (330 K): 522.5 ± 2.6 J/K/mol
- molar heat capacity at constant pressure (330.78 K): 523.9 ± 2.7 J/K/mol
- molar heat capacity at constant pressure (334.13 K): 529 ± 2.7 J/K/mol
- molar heat capacity at constant pressure (337.48 K): 534 ± 2.7 J/K/mol
- molar heat capacity at constant pressure (340 K): 538.4 ± 2.7 J/K/mol
- molar heat capacity at constant pressure (340.82 K): 539.6 ± 2.7 J/K/mol
- molar heat capacity at constant pressure (344.16 K): 545.9 ± 2.8 J/K/mol
- molar heat capacity at constant pressure (347.5 K): 551.7 ± 2.8 J/K/mol
- molar heat capacity at constant pressure (350 K): 556.8 ± 2.8 J/K/mol
- molar heat capacity at constant pressure (350.09 K): 556.9 ± 2.8 J/K/mol
